Laboratory results taken from publication PMC10283009, “Cellular photo(geno)toxicity of gefitinib after biotransformation” (Frontiers in Pharmacology, 2023).
Entries after “also recorded” stand apart in the source; their conditions may differ. Structures can show the parent of a compound that is named as a salt. Where two headings read alike, the source gives them in different places.

Columns and labels:
HaCaT cells [1] = assay: cells; details: for Phototoxicity classification according to OECD 432 Guide: PIF <2 no phototoxicity, 2-5 probable phototoxicity, >5 phototoxicity, HaCaT NRU
Experimental: Chlorpromazine (CPZ) and sodium dodecyl sulfate (SDS) served as the positive phototoxic and negative non-phototoxic controls, respectively. […] Therefore, the phototoxicity behavior of the metabolites was studied in parallel with the parent drug.
Concisely, for each compound, two 96-well plates were seeded at a density of 2.0 × 10^4 cells/well. […] All plates were incubated for 1 h in dark conditions. Then, for each sample, in the presence of ice, one plate was irradiated with a non-cytotoxic dose of 5 J/cm^2 UVA (UVA Light), whereas the other was kept in a dark box (Dark). Next, drug solutions were replaced with fresh DMEM medium, and plates were further incubated overnight. Next day, neutral red solution (50 μg/mL) was added into the wells and incubated for 2 h at 37°C. […] Lastly, the absorbance of the plates was read at 550 nm on a Synergy H1 microplate reader. […] Afterwards, photoirritation factor (PIF) values were calculated using the following equation: PIF=IC50 Dark / IC50 UVA Light

HaCaT cells [2] = assay: Alkaline comet assay (nuclear DNA damage and repair); format: cell-based; details: 100 µM
Experimental: The comet assay (single-cell gel electrophoresis) was performed as already detailed in [Garcia-Lainez et al. (2018)] in order to detect both single and double strand breaks and alkaline labile sites on nuclear DNA. […] The reference photogenotoxic control of this assay was CPZ (10 μM). Afterwards, one plate was irradiated under 2 J/cm^2 UVA light dose (4 J/cm^2 for DMT-GFT and DMOR-GFT) while the other one was kept in darkness as the negative control. Later, both irradiated and non-irradiated cells were detached from the plates and 100 µL of cell suspension was mixed with 100 µL 1% low melting point agarose solution and loaded onto FLARE® slides. Then, slides were incubated on ice to allow drop jellification. Finally, slides were embedded in a box with lysis buffer to initiate the lysis of cells and incubated overnight at 4°C. Next day, slides were placed in electrophoresis tank filled with 1 L of cold alkaline electrophoresis buffer (0.2 M NaOH, 1 mM EDTA in distilled water and pH ≥ 13). The electrophoresis was run at 21 V (1 V/cm) for 30 min and kept at 4°C. Then, slides were washed twice with MilliQ water and DNA fixation accomplished by a serial dehydration with 70% ethanol and 100% ethanol solutions during 5 min and followed by drying for 2 h at 37°C. Nuclear DNA was stained with a SYBR Gold® bath (1:10,000 in Tris-EDTA buffer) for 30 min at 4°C and slides were kept in darkness until its visualization. Comets (nucleoids and tails) were visualized using a fluorescence microscope (Leica DMI 4000B). DNA damage was quantified by counting and analyzing at least 100 DNA comets. Finally, total comet score (TCS) was obtained with the classification of six DNA damage types ([Møller, 2006]) applying the formula: Cl. 0×0+Cl. 1×1+Cl. 2×2+Cl. 3×3+[Cl. 4×4+Cl. 5×5+Cl. 6×6]/6
Where Cl. is the class of DNA damage according to the visual scoring.
The results are expressed in 1–100 arbitrary units, where class 0 comets are comets with no DNA damage while class 6 comets represent comets with maximum DNA damage. Two-way ANOVA (Analysis of Variance) method was used for the statistical analysis of the data.

[3] = test system: caspase-3/7 activity in HaCaT cells; assay: Caspase 3/7 activity assay (Apo-ONE); format: cell-based, human; details: after UVA 5 J/cm^2, two concentrations up to about the IC50 under UVA
Experimental: HaCaT cells were seeded in 96-well plates at a concentration of 2 × 10^5 cell/mL. The next day, cells, in fresh DMEM medium without phenol red, were treated with the compounds at two different concentrations representing 100% and 50% of cell viability according to NRU dose-response curves. After 1 h incubation at 37°C, one plate was irradiated with UVA light (5 J/cm^2) and the other one was kept in dark conditions. Later, plates were incubated for another 24 h at 37°C with fresh DMEM medium. Then, samples were analyzed by the Apo-ONE Homogeneous Caspase-3/7 assay according to the manufacturer’s instructions. Immediately after, the fluorescence was monitored at 0 h and 4 h after the addition of the substrate using Synergy H1 multi-mode microplate reader (excitation at 499 nm and emission at 521 nm). The data was subjected to statistical analysis using the Two-way ANOVA (Analysis of Variance).

[4] = Triplet excited-state quenching by DMBA (laser flash photolysis); format: physicochemical; details: deaerated acetonitrile, 355 nm laser excitation, DMBA 0.1-10 mM
Experimental: A pulsed Nd:YAG L52137 V LOTIS TII laser (Sp Lotis Tii, Minsk, Belarus) was used for the excitation at 355 nm. The single pulses were ∼10 ns of duration, and the energy was ∼12 mJ/pulse. Laser flash photolysis (LFP) equipment consisted of a pulsed laser, a 77250 Oriel monochromator, and an oscilloscope DP04054 Tektronix. The output signal from the oscilloscope was transferred to a personal computer for processing. The DMOR-GFT metabolite was dissolved in acetonitrile up to an absorbance of 0.3 at 355 nm. Solutions were deaerated by bubbling nitrogen through the solution during 15 min. The rate constant of triplet excited-state quenching by 1,4-dihydro-1,2-dimethylbenzoic acid (DMBA) was determined using the Stern–Volmer Equation: 1/τ=1/τq+kq DMBA
Where τ and τ q are the lifetime of transient species in the presence and absence of DMBA, respectively. Concentrations between 0.1 and 10 mM were used for DMBA. This compound was prepared through Birch reduction following standard procedures ([Andreu et al., 2011]).

[5] = Singlet oxygen production by time-resolved NIR emission at 1,270 nm; format: physicochemical
[6] = Fluorescence emission spectra in different media; format: physicochemical; parameters: unit not given here; details: excitation at 320 nm
Experimental: (§1) Absorption spectra were recorded in a JASCO V-760 spectrophotometer using 10 × 10 mm^2 quartz cuvettes at room temperature. […] Fluorescence spectra (λ exc = 320 nm) were recorded using a Synergy H1 multi-mode microplate reader.

[7] = Fluorescence quantum yield of compounds internalized in HaCaT cells; format: physicochemical; details: inside HaCaT cells, excitation at 320 nm, anthracene as standard
Experimental: as §1
In parallel, fluorescence quantum yield (ΦF) of the internalized compounds were also determined, by comparison with anthracene as standard (Φ F = 0.27 in ethanol). […]

[8] = Photosensitized lipid peroxidation (TBARS assay); details: compound 100 µM, linoleic acid 1 mM in PBS, UVA 15 J/cm^2 vs dark
[9] = molecular target: T1, human serum albumin (HSA) (Homo sapiens, UniProt P02768); assay: Photoinduced protein oxidation assay (carbonyl content, DNPH derivatization); details: compound 100 µM, HSA 5 mg/mL in PBS, UVA 15 J/cm^2
T1 sequence (P02768 25-609): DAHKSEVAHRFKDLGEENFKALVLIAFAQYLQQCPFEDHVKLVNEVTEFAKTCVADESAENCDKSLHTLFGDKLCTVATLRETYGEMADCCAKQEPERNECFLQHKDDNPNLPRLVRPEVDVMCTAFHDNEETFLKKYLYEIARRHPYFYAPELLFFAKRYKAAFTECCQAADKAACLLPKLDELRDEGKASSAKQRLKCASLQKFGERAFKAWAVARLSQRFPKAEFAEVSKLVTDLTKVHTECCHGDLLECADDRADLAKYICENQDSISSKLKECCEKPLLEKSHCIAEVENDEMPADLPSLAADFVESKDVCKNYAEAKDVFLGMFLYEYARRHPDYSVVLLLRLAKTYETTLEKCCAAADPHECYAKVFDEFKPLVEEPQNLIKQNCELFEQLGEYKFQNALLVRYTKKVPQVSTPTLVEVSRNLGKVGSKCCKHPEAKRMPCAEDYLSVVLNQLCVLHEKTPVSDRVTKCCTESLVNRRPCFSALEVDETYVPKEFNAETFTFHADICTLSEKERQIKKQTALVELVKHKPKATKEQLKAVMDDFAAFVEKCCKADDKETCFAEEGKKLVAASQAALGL

HaCaT cells [10] = assay: Lactate dehydrogenase release assay (CytoTox-ONE); format: cell-based, human; details: after UVA 5 J/cm^2, concentration near the IC50
Experimental: Lactate Dehydrogenase activity assay was performed according to the manufacturer´s protocol. Briefly, HaCaT cells were seeded in 96-well plates (2 × 10^5 cell/mL) and incubated for 24 h. Then, after replacement of the medium with fresh no-phenol red DMEM, cells were incubated for 1 h with the compounds in two different concentrations representing 100% and 50% of cell viability according to NRU dose-response curves. Next, one plate was irradiated with UVA light (5 J/cm^2) while the other one was kept in dark conditions. Next day, samples were analyzed by CytoTox-ONE™ Homogeneous Membrane Integrity Assay and a lysis solution (9% weight/volume solution of Triton X-100 in water) was used to determine the maximum amount of LDH present. The fluorescence was measured 10 min after the addition of the substrate using Synergy H1 multi-mode microplate reader (excitation at 560 nm and emission at 590 nm). The percent of LDH release was determined following the following equation: % LDH release=Experimental LDH release/Maximum LDH release x 100

[11] = molecular target: T1, human serum albumin (HSA); parameters: purchased Sigma-Aldrich (Madrid, Spain); method as in Tamarit et al., 2021; details: GFT 100 µM, HSA 5 mg/mL in PBS, UVA 15 J/cm^2; carbonyl content value of GFT taken from the literature; ref Tamarit et al., 2021; cited from earlier work
[12] = parameters: method as in PMID 30069771; details: standard, in ethanol; ref [26]; cited from earlier work
[13] = Homo sapiens, HaCaT, 1 h, read-out: IC50 dark
[14] = Homo sapiens, HaCaT, light or radiation study, 1 h, read-out: IC50 UVA light
[15] = PIF = IC50 Dark / IC50 UVA Light, HaCaT, UVA 5 J/cm^2
[16] = in presence of calf thymus DNA (ctDNA)
[17] = in presence of methyl linoleate (ML)

Structure (SMILES): CN(C)CCCN1c2ccccc2Sc2ccc(Cl)cc21 [CPZ, Chlorpromazine hydrochloride, reference compound]
- IC50 (HaCaT cells [1]; [13]): 80 ± 17 µM
- IC50 (HaCaT cells [1]; [14]): 4 ± 0.9 µM
- Photoirritant factor (PIF) (HaCaT cells [1]; [15]): 20

Structure (SMILES): COc1cc2ncnc(Nc3ccc(O)c(Cl)c3)c2cc1OCCCN1CCOCC1 [DF-GFT, 4-Defluoro-4-hydroxy gefitinib]
- IC50 (HaCaT cells [1]; [13]): 1020 µM
- IC50 (HaCaT cells [1]; [14]): 1100 µM
- Phototoxicity classification according to OECD 432 Guide (HaCaT cells [1]): non-phototoxic; also recorded: negligible phototoxic activity
- Photoirritant factor (PIF) (HaCaT cells [1]; [15]): ~1

Structure (SMILES): COc1cc2ncnc(Nc3ccc(F)c(Cl)c3)c2cc1O [DMOR-GFT, O-Demorpholinopropyl gefitinib]
- IC50 (HaCaT cells [1]; [13]): 144 ± 6 µM
- IC50 (HaCaT cells [1]; [14]): 3 ± 0.6 µM
- Photoirritant factor (PIF) (HaCaT cells [1]; [15]): 48
- Percentage of DNA damage (comet assay) (HaCaT cells [2]; UVA light 5 min (2 J/cm^2)): did not promote DNA damage
- Percentage of DNA damage (comet assay) (HaCaT cells [2]; UVA light 10 min (4 J/cm^2)): around 45%
- Caspase-3/7 activity (relative change) [3]: concentration dependent activation of caspase-3/7
- Rate constant (kq) of triplet excited state quenching by DMBA [4]: 1.96 M^−1·s^−1 × 10^9 M^−1·s^−1
- Singlet oxygen quantum yield (Φ Δ) [5]: ≤ 0.1
- Emission (λmax) ([6]; in presence of HSA): 432
- Emission (λmax) [6, 16]: 448
- Emission (λmax) [6, 17]: 384
- Fluorescence quantum yield (ΦF) [7]: 0.1
- Photosensitized lipid peroxidation (TBARS content) [8]: remarkable enhancement in photosensitized lipid peroxidation comparable to the reference
- Protein photooxidation (carbonyl content of HSA) [9]: significant oxidative effect towards HSA

Structure (SMILES): Oc1cc2ncnc(Nc3ccc(F)c(Cl)c3)c2cc1OCCCN1CCOCC1 [DMT-GFT, O-Demethyl gefitinib]
- IC50 (HaCaT cells [1]; [13]): 34 ± 3 µM
- IC50 (HaCaT cells [1]; [14]): 5 ± 0.1 µM
- Phototoxicity classification according to OECD 432 Guide (HaCaT cells [1]): can still be considered phototoxic
- Photoirritant factor (PIF) (HaCaT cells [1]; [15]): 7
- Percentage of DNA damage (comet assay) (HaCaT cells [2]; UVA light 10 min (4 J/cm^2)): around 54%
- Caspase-3/7 activity (relative change) [3]: caspase-3/7 activity was similar between the concentration of 2.5 µM and the concentration corresponding to IC50
- LDH release (HaCaT cells [10]): did not show any effect on the LDH release
- Emission (λmax) [6, 16]: 450
- Emission (λmax) [6, 17]: 384
- Fluorescence quantum yield (ΦF) [7]: 0.04
- Photosensitized lipid peroxidation (TBARS content) [8]: neither GFT nor DMT-GFT showed detectable changes
- Protein photooxidation (carbonyl content of HSA) [9]: did not exhibit any lipid or protein oxidative damage

Structure (SMILES): COc1cc2ncnc(Nc3ccc(F)c(Cl)c3)c2cc1OCCCN1CCOCC1 [GFT, Gefitinib hydrochloride, reference compound]
- Percentage of DNA damage (comet assay) (HaCaT cells [2]; UVA light 5 min (2 J/cm^2)): around 72%
- LDH release (HaCaT cells [10]): small but significant percent of LDH-release
- Singlet oxygen quantum yield (Φ Δ) [5]: ≤ 0.1
- Fluorescence quantum yield (ΦF) [7]: 0.07
- Protein photooxidation (carbonyl content of HSA) [11]: significant oxidative effect towards HSA

Structure (SMILES): CCCCCCCCCCCCOS(=O)(=O)[O-].[Na+] [SDS, sodium dodecyl sulfate, reference compound]
- Photoirritant factor (PIF) (HaCaT cells [1]): 1
- IC50 (HaCaT cells [1]; read-out: IC50 UVA light, HaCaT, neutral red uptake, UVA 5 J/cm^2, 1 h incubation with compound): 136 ± 23 µM
- IC50 (HaCaT cells [1]; read-out: IC50 dark, HaCaT, neutral red uptake, kept in dark, 1 h incubation with compound): 133 ± 31 µM

Structure (SMILES): c1ccc2cc3ccccc3cc2c1 [anthracene]
- Fluorescence quantum yield (ΦF) [12]: 0.27
